Experimental data from patent US20060166937A1, “Bisphosphonates for the treatment of atherosclerosis and device comprising them” (priority 2002, published 2006).

What was measured:
[1] = system: patient with end stage renal failure undergoing dialysis; test: Arterial and valve calcification in a renal dialysis patient; type: in vivo, human; conditions: 90 mg 2-hour i.v. infusion once a month for three months, one year following initial treatment
Protocol: The Effect of a Bisphosphonate on Arterial and Valve Calcification in a Renal Dialysis Patient A patient with end stage renal failure undergoing dialysis was diagnosed with severe osteoporosis. The patient was treated with 90 mg of pamidronate disodium administered via a 2-hour intravenous infusion once a month for a total of three months. […] This reduction in calcification was independently corraborated by three physicians who viewed the radiographic images in a blinded fashion.

[2] = system: New Zealand White rabbit iliac arteries; test: Rabbit iliac stent model, restenosis at 28 days; type: in vivo
Protocol: A combined angioplasty and stenting procedure is performed in New Zealand White rabbit iliac arteries. Iliac artery balloon injury is performed by inflating a 3.0×9.0 mm angioplasty balloon in the mid-portion of the artery followed by “pull-back” of the catheter for 1 balloon length. Balloon injury is repeated 2 times, and a 3.0×12 mm stent is deployed at 6 atm for 30 seconds in the iliac artery. Balloon injury and stent placement is then performed on the contralateral iliac artery in the same manner. A post-stent deployment angiogram is performed. All animals receive oral aspirin 40 mg/day daily as anti-platelet therapy and are fed standard low-cholesterol rabbit chow. Twenty-eight days after stenting, animals are anesthetized and euthanized and the arterial tree is perfused at 100 mmHg with lactated Ringer's for several minutes, then perfused with 10% formalin at 100 mmHg for 15 minutes. The vascular section between the distal aorta and the proximal femoral arteries is excised and cleaned of periadventitial tissue. The stented section of artery is embedded in plastic and sections are taken from the proximal, middle, and distal portions of each stent. All sections are stained with hematoxylin-eosin and Movat pentachrome stains. Computerized planimetry is performed to determine the area of the internal elastic lamina (IEL), external elastic lamina (EEL) and lumen. The neointima and neointimal thickness is measured both at and between the stent struts. The vessel area is measured as the area within the EEL. Data are expressed as mean±SEM. Statistical analysis of the histologic data is accomplished using analysis of variance (ANOVA) due to the fact that two stented arteries are measured per animal with a mean generated per animal. A P<0.05 is considered statistically significant.
Zoledronic acid is administered orally by gavage at 30 mg/kg once daily from 3 days prior to stenting until day 27 post-stenting.

[3] = system: PDGF receptor immunocomplexes of BALB/c 3T3 cells; conditions: free drug, day after day
Protocol: PDGF-stimulated receptor tyrosine kinase assay is performed on the last piece of each sample to determine the zoledronic acid activity. The inhibition of PDGF-stimulated receptor tyrosine kinase activity in vitro is measured in PDGF receptor immunocomplexes of BALB/c 3T3 cells, analogously to the method described by E. Andrejauskas-Buchdunger and U. Regenass in Cancer Research 52, 5353-5358 (1992).

[4] = system: LDLr−/− mice; test: Mouse model of progression of advanced atherosclerosis with vulnerable plaques (arterial calcification, valve calcification, plaque stabilization); type: in vivo
Protocol: A mouse model of progression of advanced atherosclerosis with development of vulnerable plaques was employed. Male, 4-6 week old LDLr−/− mice were divided into treatment groups of 18-20 animals each. […] The remaining LDLr−/− animals were dosed subcutaneously once per day with either vehicle or zoledronic acid solution (10 mg/kg/day) five out of seven days a week from week from week 15 through week 18 of diet administration. From weeks 19 through 22, no treatment was administered, however mice remained on the atherosclerosis-inducing high cholesterol/cholic acid diet. Mice were sacrificed at the end of week 22 and the heart and aorta were removed. The upper portion of the heart attached to the most proximal portion of the aorta containing the aortic sinus were embedded in OCT and frozen. 10 micron-thick sections were cut through the aortic sinus using a cryostat. Twenty-eight sections per animal were stained with von Kassa and/or hematoxylin. Cross-sectional areas were analyzed by planimetry to allow determination of atherosclerotic lesion area and extent of calcification within the heart valves. The remaining aorta, from the ascending aorta to the iliac bifurcation, as well as the major branches of the aorta were fixed, parafin embedded and cross sectioned for histologic analysis. Atherosclerosis extent and lesion composition was determined for the aorta and innominate (also called brachiocephalic) arteries using approriate staining methodology including hemotoxylin and eosin staining, Verhoff von Giessen staining for elastin, Von Kassa staining for calcium, and immunohistochemical stains for inflammatory cells.

[5] = system: rat carotid arteries, balloon injured; test: 28 day rat carotid artery balloon injury model (late neointimal lesion formation); type: in vivo; conditions: for percent inhibition of neointimal lesion formation: 28 days post-balloon injury
Protocol: Inhibition of Late Neointimal Lesion Formation in the 28 Day Rat Carotid Artery Balloon Injury Model
Zoledronic acid is tested in the following rat model.
Rats are dosed orally with […]. Daily dosing starts 3 days prior to surgery and continues for 31 days. Rat carotid arteries are balloon injured using a method described by Clowes et al. Lab. Invest. 1983; 49; 208-215. Following sacrifice at 28 days post-balloon injury, carotid arteries are removed and processed for histologic and morphometric evaluation.

[6] = Stability of zoledronic acid in human plasma; type: in vitro ADME; conditions: 37° C. for 72 hours
[7] = at 22 weeks, vs baseline lesions at 15 weeks and vehicle at 22 weeks

SMILES	arterial and valve calcification (radiographic images) [1]	extent of restenotic lesion formation ([2]; 30 mg/kg oral gavage once daily, vs placebo)	EEL area compared with control (constrictive remodeling or aneurysmal-type expansion) ([2]; 30 mg/kg oral once daily)	healing of the intima in stented arterial segments ([2]; 30 mg/kg oral once daily)	reduction in average neointimal thickness ([2]; 30 mg/kg oral once daily, P<0.0001) [%]	reduction in percent arterial stenosis ([2]; 30 mg/kg oral once daily, P<0.0002) [%]	reduction in neointimal area ([2]; 30 mg/kg oral once daily, P<0.04) [%]	activity over time in the same assay [3]	plaque phenotype (vulnerable or rupture-prone plaques) ([4]; 10 mg/kg/day s.c., four weeks, at 22 weeks, vs baseline and vehicle)	calcification of the aortic valves ([4]; 10 mg/kg/day s.c., vs placebo-treated animals)	progression of atherosclerosis in the aorta and innominate arteries ([4]; 10 mg/kg/day s.c., weeks 15-18, read at 22 weeks of high cholesterol/cholic acid diet, vs vehicle)	fibrous caps of atherosclerotic lesions [4, 7]	inflammatory cells and areas of calcification in atherosclerotic lesions [4, 7]	percent inhibition of neointimal lesion formation ([5]; 0.5 mg/kg oral gavage) [%]	percent inhibition of neointimal lesion formation ([5]; 2.0 mg/kg oral gavage) [%]	neointimal lesion formation at 28 days following balloon injury ([5]; oral, daily, dose of from 0.2 to 3.5 mg)	stability in human plasma [6]
NCCC(O)(P(=O)(O)O)P(=O)(O)O [pamidronate disodium, 3-amino-1-hydroxypropane-1,1-diphosphonic acid]	noticeable reduction																
O=P(O)(O)C(O)(Cn1ccnc1)P(=O)(O)O [zoledronic acid, 2-(imidazol-1yl)-1-hydroxyethane-1,1-diphosphonic acid]		marked reduction	did not result in differences	well healed	29	17	17	strong decrease	more stable phenotype	significantly less calcification	significantly reduced progression	thicker fibrous caps	less inflammatory cells and areas of calcification	17	37	significantly reduce	stable
